Test results taken from the supplement of paper PMC10307832.

Columns and labels:
Assay in all cases: relative viability (nuclei count vs DMSO), 5 days (fraction); higher = more cells survive
[1] = compound: O=C(Nc1cccc(C(F)(F)F)c1)Nc1cc(S(=O)(=O)NC2CC2)ccc1-c1ccsc1 [AGI-6780] + Cc1nc(Nc2ncc(C(=O)Nc3c(C)cccc3Cl)s2)cc(N2CCN(CCO)CC2)n1 [Dasatinib] (partner 0.075 µM)
Outline: (§1)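 After 5 days of treatment, lung cancer cells in 1536-well plates were fixed and stained in a single step (final 0.05% Triton X-100, 1% formaldehyde, 1 ug/ml Hoechst) and their nuclei counted on 4× images. Treatment had been applied by pin tool the day after seeding as one drug alone or as a fixed anchor-drug dose with five library-drug doses (not always all listed) in √10 steps. Relative viability is the nuclei count of treated wells divided by that of vehicle wells, and values are medians of duplicate plates.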

[2] = compound: O=C(Nc1cccc(C(F)(F)F)c1)Nc1cc(S(=O)(=O)NC2CC2)ccc1-c1ccsc1 [AGI-6780] + O=C(CCCCCCC(=O)Nc1ccccc1)NO [Vorinostat] (partner 1 µM)
Outline: as §1

[3] = compound: O=C(Nc1cccc(C(F)(F)F)c1)Nc1cc(S(=O)(=O)NC2CC2)ccc1-c1ccsc1 [AGI-6780] + CC1(C)CCC(c2ccc(Cl)cc2)=C(CN2CCN(c3ccc(C(=O)NS(=O)(=O)c4ccc(N[C@H](CCN5CCOCC5)CSc5ccccc5)c(S(=O)(=O)C(F)(F)F)c4)cc3)CC2)C1 [Navitoclax] (partner 0.5 µM)
Outline: as §1

[4] = compound: O=C(Nc1cccc(C(F)(F)F)c1)Nc1cc(S(=O)(=O)NC2CC2)ccc1-c1ccsc1 [AGI-6780] + C[C@@H](Oc1cc(-c2cnn(C3CCNCC3)c2)cnc1N)c1c(Cl)ccc(F)c1Cl [Crizotinib] (partner 1 µM)
Outline: as §1

| Cell Line | relative viability ([1]; first compound 0.08 µM) | relative viability ([1]; first compound 0.253 µM) | relative viability ([1]; first compound 0.8 µM) | relative viability ([1]; first compound 2.53 µM) | relative viability ([1]; first compound 8 µM) | relative viability ([2]; first compound 0.08 µM) | relative viability ([2]; first compound 0.253 µM) | relative viability ([2]; first compound 0.8 µM) | relative viability ([2]; first compound 2.53 µM) | relative viability ([2]; first compound 8 µM) | relative viability ([3]; first compound 0.08 µM) | relative viability ([3]; first compound 0.253 µM) | relative viability ([3]; first compound 0.8 µM) | relative viability ([3]; first compound 2.53 µM) | relative viability ([3]; first compound 8 µM) | relative viability ([4]; first compound 0.08 µM) | relative viability ([4]; first compound 0.253 µM) | relative viability ([4]; first compound 0.8 µM) | relative viability ([4]; first compound 2.53 µM) | relative viability ([4]; first compound 8 µM) |
| --- | --- | --- | --- | --- | --- | --- | --- | --- | --- | --- | --- | --- | --- | --- | --- | --- | --- | --- | --- | --- |
| HARA | 0.229 | 0.278 | 0.259 | 0.179 | 0.233 | 0.431 | 0.575 | 0.499 | 0.528 | 0.616 | 1.2 | 1.15 | 1.09 | 1.19 | 1.19 | 1.05 | 1.08 | 0.894 | 1.01 | 1.07 |
| H3255 | 0.349 | 0.374 | 0.456 | 0.353 | 0.333 | 0.541 | 0.865 | 0.893 |  | 0.867 | 0.395 | 0.537 | 0.688 | 0.292 | 0.516 | 0.884 | 0.848 | 0.997 | 0.84 | 0.921 |
| SK-LU-1 | 0.172 | 0.183 |  | 0.135 | 0.17 | 0.816 | 0.798 | 0.534 | 0.732 | 0.786 | 0.904 | 0.961 | 0.418 | 0.851 | 0.955 | 1.01 | 0.904 | 0.629 | 0.936 | 0.878 |
| NCI-H1793 | 0.399 | 0.389 | 0.455 | 0.263 | 0.41 | 0.69 | 0.807 | 0.797 | 0.666 | 0.685 | 0.977 | 0.365 | 0.455 | 0.386 | 0.519 |  |  |  |  |  |
| EMC-BAC-2 | 0.313 | 0.338 | 0.311 | 0.273 | 0.334 |  | 0.453 | 0.809 | 0.4 | 0.421 | 1.19 | 1.14 | 1.23 | 1.14 | 1.17 | 0.791 | 0.728 | 0.763 | 0.668 | 0.78 |
| NCI-H2347 | 0.323 | 0.342 | 0.276 | 0.307 | 0.317 | 0.575 | 0.587 | 0.637 | 0.553 | 0.784 | 0.7 | 0.839 | 0.552 | 0.605 | 0.841 | 0.733 | 0.738 | 0.59 | 0.663 | 0.801 |
| EPLC-272H |  | 0.423 | 0.292 | 0.285 | 0.365 | 0.351 | 0.401 | 0.318 | 0.554 | 0.289 | 1.17 | 1.37 | 1.02 | 0.918 | 1.08 | 0.888 | 0.929 | 0.841 | 0.714 | 0.791 |
| LU99A | 0.52 | 0.58 | 0.689 | 0.401 | 0.629 | 0.568 | 0.461 | 0.502 | 0.335 | 0.466 | 0.786 | 0.842 | 0.823 | 0.741 | 0.809 | 0.606 | 0.484 | 0.627 | 0.473 | 0.669 |
| LXF-289 | 0.228 | 0.213 | 0.192 | 0.155 | 0.204 | 0.858 | 0.788 | 0.736 | 0.843 | 0.778 | 0.967 | 0.939 | 0.936 | 0.987 | 0.939 | 0.84 | 0.798 | 0.795 | 0.83 | 0.771 |
| NCI-H1395 | 0.403 | 0.478 | 0.428 | 0.36 | 0.376 | 0.714 | 0.726 | 0.826 | 0.618 | 0.701 | 1.25 | 1.17 | 1.2 |  | 1.23 |  |  |  |  |  |
| NCI-H520 | 0.197 | 0.185 | 0.216 | 0.177 | 0.194 | 0.694 | 0.71 | 0.91 | 0.64 | 0.764 | 1.04 | 1.12 | 1.18 | 1.05 | 1.05 | 0.936 | 0.729 | 1.12 | 0.753 | 0.774 |
| 201T | 0.613 | 0.53 | 0.564 | 0.476 | 0.6 | 0.991 | 0.98 | 1.06 | 0.951 | 1.04 | 1.26 | 1.19 | 1.24 | 1.18 | 1.26 | 1.04 | 1.04 | 1.01 | 1.03 | 1.05 |
| NCI-H1944 | 0.239 | 0.232 | 0.233 |  | 0.233 | 0.641 | 0.523 | 0.575 |  | 0.579 | 1.07 | 1.09 | 1.01 | 0.792 | 1.02 | 1.16 | 1.12 | 1.25 | 0.926 | 1.02 |
| NCI-H3122 | 0.86 | 0.904 | 0.911 | 0.669 | 0.955 | 1.03 | 0.805 | 0.843 | 0.832 | 1.02 | 1.03 | 1.03 | 1.02 | 1.07 | 0.977 | 0.252 | 0.291 | 0.301 | 0.252 | 0.293 |
| NCI-H1734 | 0.459 | 0.461 | 0.473 | 0.347 | 0.435 | 0.798 | 0.842 | 0.865 | 0.728 | 0.799 | 0.889 | 0.814 | 0.778 |  | 0.861 | 0.753 | 0.648 | 0.757 |  | 0.752 |
| NCI-H1792 |  | 0.859 | 0.663 | 0.719 | 0.728 |  |  |  |  |  | 0.377 | 0.613 | 0.834 | 0.629 | 0.625 | 0.836 | 0.993 | 1.07 | 0.931 | 0.989 |
| NCI-H2126 | 0.632 | 0.657 | 0.566 | 0.381 | 0.586 | 0.855 | 0.884 | 0.79 | 0.585 | 0.758 | 0.926 | 0.898 | 0.839 | 0.738 | 0.84 | 1.1 | 1.01 | 1.03 | 1.02 | 1.05 |
